Laboratory results from BindingDB's records for doi:10.1021/jm7010194 (Abbott Laboratories, 2007).

What follows are compounds tested against T1, ATP-sensitive inward rectifier potassium channel 11 (Homo sapiens, UniProt Q14654) (assay: Channel opening activity at human bladder Kir6.2 channel containing SUR2B expressed in L cells by FLIPR assay).
T1 sequence (Q14654 whole entry): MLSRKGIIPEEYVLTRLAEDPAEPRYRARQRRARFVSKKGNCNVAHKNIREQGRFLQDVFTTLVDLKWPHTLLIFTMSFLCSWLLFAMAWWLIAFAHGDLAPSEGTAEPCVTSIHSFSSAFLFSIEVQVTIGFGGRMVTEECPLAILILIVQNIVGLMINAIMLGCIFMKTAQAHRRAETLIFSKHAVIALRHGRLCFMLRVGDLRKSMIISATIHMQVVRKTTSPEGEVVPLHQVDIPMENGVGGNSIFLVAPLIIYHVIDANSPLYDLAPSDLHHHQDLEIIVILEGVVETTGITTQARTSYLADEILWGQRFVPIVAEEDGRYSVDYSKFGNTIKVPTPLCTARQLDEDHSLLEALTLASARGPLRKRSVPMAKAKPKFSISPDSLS

Row | Compound | EC50 [nM]
1 | CC(Cl)(Cl)[C@@H](NC(=O)c1ccc(Cl)cc1)N/C(=N/C#N)Nc1cccnc1 | 339
2 | COc1ncccc1NC(=NC#N)NC(NC(=O)c1ccc(Cl)cc1)C(C)(Cl)Cl (stereo unspecified) | 9770
3 | CC(Cl)(Cl)C(NC(=O)c1ccc(Cl)cc1)NC(=NC#N)Nc1cccnc1Cl (stereo unspecified) | 6030
4 | CC(Cl)(Cl)C(NC(=O)c1cccs1)N/C(=N/C#N)Nc1ccc(F)nc1 (stereo unspecified) | 4570
5 | Cc1cccc(C(=O)NC(N/C(=N/C#N)Nc2ccc(Cl)nc2)C(C)(Cl)Cl)c1 (stereo unspecified) | 1700
6 | CC(Cl)(Cl)C(NC(=O)c1ccc(OC(F)(F)F)cc1)N/C(=N/C#N)Nc1ccc(F)nc1 (stereo unspecified) | 8910
7 | CC(Cl)(Cl)C(NC(=O)c1cc(Cl)cc(Cl)c1)N/C(=N/C#N)Nc1ccc(C(F)(F)F)nc1 (stereo unspecified) | 3720
8 | COc1ccc(N/C(=N\C#N)NC(NC(=O)c2ccc(Cl)cc2)C(C)(Cl)Cl)cn1 (stereo unspecified) | 10500
9 | CC(Cl)(Cl)C(NC(=O)c1ccc(C(F)(F)F)cc1)N/C(=N/C#N)Nc1ccc(C(F)(F)F)nc1 (stereo unspecified) | 26900
10 | Cc1cncc(N/C(=N\C#N)NC(NC(=O)c2ccc(Cl)cc2)C(C)(Cl)Cl)c1 (stereo unspecified) | 759
11 | Cc1ccc(C(=O)NC(N/C(=N/C#N)Nc2ccc(C(F)(F)F)nc2)C(C)(Cl)Cl)cc1 (stereo unspecified) | 3800
12 | CC(Cl)(Cl)C(NC(=O)c1ccc(Br)cc1)N/C(=N/C#N)Nc1ccc(C(F)(F)F)nc1 (stereo unspecified) | > 100000
13 | Cc1nc(C(F)(F)F)ccc1N/C(=N\C#N)NC(NC(=O)c1ccc(Cl)cc1)C(C)(Cl)Cl (stereo unspecified) | 9550
14 | Cc1ccc(C(=O)NC(N/C(=N/C#N)Nc2ccc(F)nc2)C(C)(Cl)Cl)cc1 (stereo unspecified) | 4270
15 | CC(Cl)(Cl)C(NC(=O)c1cccs1)N/C(=N/C#N)Nc1cncc(Br)c1 (stereo unspecified) | 1290
16 | CC(Cl)(Cl)C(NC(=O)c1ccc(Cl)cc1)N/C(=N/C#N)Nc1ccccc1F (stereo unspecified) | 12000
17 | CC(Cl)(Cl)C(NC(=O)c1cc(Cl)cc(Cl)c1)N/C(=N/C#N)Nc1ccc(Cl)nc1 (stereo unspecified) | 813
18 | CC(Cl)(Cl)C(NC(=O)c1cccs1)N/C(=N/C#N)Nc1ccc(Cl)nc1 (stereo unspecified) | 2750
19 | CC(Cl)(Cl)C(NC(=O)c1ccc(Cl)cc1)N/C(=N/C#N)Nc1ccc(Cl)nc1 (stereo unspecified) | 457

Row | Compound | EC50 [nM]
20 | Cc1ccc(C(=O)NC(N/C(=N/C#N)Nc2cncc(Br)c2)C(C)(Cl)Cl)cc1 (stereo unspecified) | 1320
21 | CC(Cl)(Cl)C(NC(=O)c1cc(Cl)cc(Cl)c1)N/C(=N/C#N)Nc1ccc(F)nc1 (stereo unspecified) | 2040
22 | CC(Cl)(Cl)C(NC(=O)c1cc(F)cc(F)c1)N/C(=N/C#N)Nc1ccc(F)nc1 (stereo unspecified) | 4270
23 | CC(Cl)(Cl)C(NC(=O)c1ccc(Br)cc1)N/C(=N/C#N)Nc1ccc(Cl)nc1 (stereo unspecified) | 537
24 | CC(Cl)(Cl)C(NC(=O)c1cccc(Cl)c1)N/C(=N/C#N)Nc1ccc(F)nc1 (stereo unspecified) | 2290
25 | Cc1ccc(N/C(=N\C#N)NC(NC(=O)c2ccc(Cl)cc2)C(C)(Cl)Cl)cn1 (stereo unspecified) | 2240
26 | CC(Cl)(Cl)C(NC(=O)c1cccc(F)c1)N/C(=N/C#N)Nc1ccc(Cl)nc1 (stereo unspecified) | 5370
27 | CC(Cl)(Cl)C(NC(=O)c1cc(F)cc(F)c1)N/C(=N/C#N)Nc1ccc(C(F)(F)F)nc1 (stereo unspecified) | 1180
28 | CC(Cl)(Cl)[C@@H](NC(=O)c1ccc(Cl)cc1)N/C(=N/C#N)Nc1ccc(Cl)nc1 | 1070
29 | CC(Cl)(Cl)C(NC(=O)c1ccc(F)cc1)N/C(=N/C#N)Nc1ccc(C(F)(F)F)nc1 (stereo unspecified) | 2090
30 | COc1cc(OC)cc(C(=O)NC(N/C(=N/C#N)Nc2ccc(Cl)nc2)C(C)(Cl)Cl)c1 (stereo unspecified) | 8910
31 | CC(Cl)(Cl)C(NC(=O)c1ccc(OC(F)(F)F)cc1)N/C(=N/C#N)Nc1ccc(Cl)nc1 (stereo unspecified) | 5370
32 | CC(Cl)(Cl)C(NC(=O)c1cccs1)N/C(=N/C#N)Nc1ccc(C(F)(F)F)nc1 (stereo unspecified) | 1740
33 | CC(Cl)(Cl)C(NC(=O)c1cccc(Cl)c1)N/C(=N/C#N)Nc1ccc(C(F)(F)F)nc1 (stereo unspecified) | 6760
34 | CC(Cl)(Cl)C(NC(=O)c1ccc(Cl)cc1)N/C(=N/C#N)Nc1cncc(Br)c1 (stereo unspecified) | 646
35 | Cc1cccc(C(=O)NC(N/C(=N/C#N)Nc2cncc(Br)c2)C(C)(Cl)Cl)c1 (stereo unspecified) | 1660
36 | CC(Cl)(Cl)C(NC(=O)c1ccc(I)cc1)N/C(=N/C#N)Nc1ccc(Cl)nc1 (stereo unspecified) | 891
37 | CC(Cl)(Cl)C(NC(=O)c1ccc(I)cc1)N/C(=N/C#N)Nc1ccc(C(F)(F)F)nc1 (stereo unspecified) | 7760
38 | CC(Cl)(Cl)C(NC(=O)c1ccc(F)cc1)N/C(=N/C#N)Nc1ccc(Cl)nc1 (stereo unspecified) | 1290

Row | Compound | EC50 [nM]
39 | CC(Cl)(Cl)C(NC(=O)c1ccc(Cl)cc1)N/C(=N/C#N)Nc1ccc(C(F)(F)F)nc1 (stereo unspecified) | 1620
40 | CC(Cl)(Cl)C(NC(=O)c1ccc(Cl)cc1)N/C(=N/C#N)Nc1ccc(F)nc1 (stereo unspecified) | 1510
41 | Cc1ccc(C(=O)NC(N/C(=N/C#N)Nc2ccc(Cl)nc2)C(C)(Cl)Cl)cc1 (stereo unspecified) | 912
42 | CC(Cl)(Cl)C(NC(=O)c1ccccc1)N/C(=N/C#N)Nc1ccc(Cl)nc1 (stereo unspecified) | 2040
43 | CC(Cl)(Cl)C(NC(=O)c1cccc(Cl)c1)N/C(=N/C#N)Nc1cncc(Br)c1 (stereo unspecified) | 776
44 | CC(Cl)(Cl)[C@H](NC(=O)c1ccc(Cl)cc1)N/C(=N/C#N)Nc1ccc(Cl)nc1 | 2140
45 | CC(Cl)(Cl)C(NC(=O)c1cc(F)cc(F)c1)N/C(=N/C#N)Nc1ccc(Cl)nc1 (stereo unspecified) | 1100
46 | CC(Cl)(Cl)C(NC(=O)c1ccc(OC(F)(F)F)cc1)N/C(=N/C#N)Nc1cncc(Br)c1 (stereo unspecified) | > 100000
47 | CC(Cl)(Cl)C(NC(=O)c1ccc(F)cc1)N/C(=N/C#N)Nc1cncc(Br)c1 (stereo unspecified) | 955
48 | Cc1cccc(C(=O)NC(N/C(=N/C#N)Nc2ccc(F)nc2)C(C)(Cl)Cl)c1 (stereo unspecified) | 4270
49 | CC(Cl)(Cl)C(NC(=O)c1cc(Cl)cc(Cl)c1)N/C(=N/C#N)Nc1cncc(Br)c1 (stereo unspecified) | 2630
50 | CC(Cl)(Cl)C(NC(=O)c1ccc(C(F)(F)F)cc1)N/C(=N/C#N)Nc1ccc(Cl)nc1 (stereo unspecified) | 5010
51 | COc1cnccc1C(=O)NC(N/C(=N/C#N)Nc1ccc(Cl)nc1)C(C)(Cl)Cl (stereo unspecified) | 6610
52 | CC(Cl)(Cl)C(NC(=O)c1cccc(F)c1)N/C(=N/C#N)Nc1ccc(C(F)(F)F)nc1 (stereo unspecified) | 2290
53 | CC(Cl)(Cl)C(NC(=O)c1cc(F)cc(F)c1)N/C(=N/C#N)Nc1cncc(Br)c1 (stereo unspecified) | 1100
54 | Cc1cccc(C(=O)NC(N/C(=N/C#N)Nc2ccc(C(F)(F)F)nc2)C(C)(Cl)Cl)c1 (stereo unspecified) | 2570
55 | CC(Cl)(Cl)C(NC(=O)c1cccc(Cl)c1)N/C(=N/C#N)Nc1ccc(Cl)nc1 (stereo unspecified) | 1660
56 | CC(Cl)(Cl)C(NC(=O)c1ccc(F)cc1)N/C(=N/C#N)Nc1ccc(F)nc1 (stereo unspecified) | 11700
